Reference: US20090253634A1, “Methods and Compositions for the Treatment of Gastrointestinal Disorders” (MICROBIA, INC., priority 2005, published 2009)
Bridge positions count the residues as written; N and C are the ends. Peptide text beside a SMILES is read from it.

What was measured:
gastrointestinal transit = assay: murine gastrointestinal transit (GIT) assay, acute and chronic dosing; assay type: in vivo, mice
Procedure: In order to determine whether the peptides increase the rate of gastrointestinal transit, the peptides and controls were tested using a murine gastrointestinal transit (GIT) assay (Moon et al. Infection and Immunity 25:127, 1979). In this assay, charcoal, which can be readily visualized in the gastrointestinal tract is administered to mice after the administration of a test compound. The distance traveled by the charcoal is measured and expressed as a percentage of the total length of the […].
Mice were fasted with free access to water for 12 to 16 hours before the treatment with peptide or control buffer. The peptides were orally administered at 1 μg/kg-1 mg/kg of peptide in buffer ([…] pH 7.5) 7 minutes before being given an oral dose of 5% Activated Carbon (Aldrich 242276-250G). Control mice were administered buffer only before being given a dose of Activated Carbon. After 15 minutes, the mice were sacrificed and their intestines from the stomach to the cecum were dissected. The total length of the intestine as well as the distance traveled from the stomach to the charcoal front was measured for each animal and the results are expressed as the percent of the total length of the intestine traveled by the charcoal front. All results are reported as the average of 10 mice±standard deviation. A comparison of the distance traveled by the charcoal between the mice treated with peptide versus the mice treated with vehicle alone was performed using a Student's t test and a statistically significant difference was considered for P<0.05. P-values are calculated using a two-sided T-Test assuming unequal variances.
The identical experiment was performed to determine if SEQ ID NO:3 is effective in a chronic dosing treatment regimen. Briefly, 8 week old CD1 female mice are dosed orally once a day for 5 days with either SEQ ID NO:3 (0.06 mg/kg or 0.25 mg/kg in 20 mM Tris pH 7.5) or vehicle alone (20 mM Tris pH 7.5). On the 5th day, a GIT assay is performed identical to that above except 200 μl of a 10% charcoal solution is administered. […] The results are shown side by side with acute dosing (1 day).

bowel habits = assay: seven-day oral dosing study of bowel habits in humans; assay type: in vivo
Procedure: Seven daily doses of 30, 100, 300, or 1000 μg of chemically synthesized SEQ ID NO:3 were given to 48 healthy subjects. SEQ ID NO:3 or placebo (vehicle) was administered orally in 5.0 mL 50 mM phosphate buffer (pH 6.0) plus 3×20 mL water rinses and 175 mL water after at least a 10-hour fast. In each dosing group, 8 subjects were randomized to receive SEQ ID NO:3 and 4 subjects were randomized to receive placebo. […] The Mean Ease of Passage (FIG. 15d) of stools was tested for subjects treated with 30-1000 μg SEQ ID NO:3.

aminopeptidase = target: T1, aminopeptidase (Sus scrofa, UniProt P15145); assay: in vitro proteolytic stability: aminopeptidase; assay type: in vitro ADME; settings: 37° C., up to 24 h
T1 construct: purchased Roche 102768
T1 sequence (P15145 1-963): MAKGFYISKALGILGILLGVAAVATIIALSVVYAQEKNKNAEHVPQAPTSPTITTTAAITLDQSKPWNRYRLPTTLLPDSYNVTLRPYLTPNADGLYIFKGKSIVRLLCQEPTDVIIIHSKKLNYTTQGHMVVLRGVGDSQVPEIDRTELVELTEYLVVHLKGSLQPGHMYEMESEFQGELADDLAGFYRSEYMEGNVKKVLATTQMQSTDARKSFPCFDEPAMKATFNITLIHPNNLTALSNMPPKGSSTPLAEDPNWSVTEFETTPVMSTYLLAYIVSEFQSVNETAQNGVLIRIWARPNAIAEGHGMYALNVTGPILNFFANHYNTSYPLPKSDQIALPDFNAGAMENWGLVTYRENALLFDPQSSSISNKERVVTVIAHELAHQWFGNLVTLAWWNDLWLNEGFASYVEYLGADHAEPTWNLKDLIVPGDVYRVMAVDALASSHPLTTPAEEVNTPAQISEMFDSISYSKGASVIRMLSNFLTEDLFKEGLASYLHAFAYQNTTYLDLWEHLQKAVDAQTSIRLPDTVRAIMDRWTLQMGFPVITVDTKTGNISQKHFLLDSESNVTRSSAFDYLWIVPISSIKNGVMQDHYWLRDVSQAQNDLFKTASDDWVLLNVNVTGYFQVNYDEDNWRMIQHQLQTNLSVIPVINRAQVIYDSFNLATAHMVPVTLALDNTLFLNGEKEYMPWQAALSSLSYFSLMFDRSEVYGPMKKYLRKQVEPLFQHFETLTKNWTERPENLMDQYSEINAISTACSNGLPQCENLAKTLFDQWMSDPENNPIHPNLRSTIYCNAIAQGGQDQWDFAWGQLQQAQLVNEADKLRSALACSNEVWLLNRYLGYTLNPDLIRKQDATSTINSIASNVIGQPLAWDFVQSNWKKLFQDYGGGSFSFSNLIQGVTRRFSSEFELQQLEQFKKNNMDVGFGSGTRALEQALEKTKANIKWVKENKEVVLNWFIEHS
Procedure: (§1) All samples were analyzed by LC/MS

pepsin = target: T2, pepsin (Sus scrofa, UniProt P00791); assay: in vitro proteolytic stability: pepsin; assay type: in vitro ADME, porcine; settings: pH 2.0, 37° C., up to 3 h
T2 construct: purchased Sigma-Aldrich P68871; host or cells: porcine gastric mucosa
Procedure: as §1

T2 sequence (P00791 60-385): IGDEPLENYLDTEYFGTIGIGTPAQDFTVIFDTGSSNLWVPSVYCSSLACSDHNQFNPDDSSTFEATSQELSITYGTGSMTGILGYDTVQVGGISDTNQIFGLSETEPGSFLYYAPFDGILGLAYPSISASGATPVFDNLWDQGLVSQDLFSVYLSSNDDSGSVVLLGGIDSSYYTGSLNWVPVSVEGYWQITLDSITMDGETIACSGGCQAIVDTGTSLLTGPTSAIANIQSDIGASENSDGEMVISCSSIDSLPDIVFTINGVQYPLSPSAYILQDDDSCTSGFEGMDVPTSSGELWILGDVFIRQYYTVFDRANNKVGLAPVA

SMILES: C[C@@H]1NC(=O)[C@@H]2CCCN2C(=O)[C@H](CC(N)=O)NC(=O)[C@@H]2CSSC[C@H](N)C(=O)N[C@H]3CSSC[C@H](NC1=O)C(=O)N[C@@H]([C@@H](C)O)C(=O)NCC(=O)N[C@H](C(=O)N[C@@H](Cc1ccc(O)cc1)C(=O)O)CSSC[C@H](NC(=O)[C@H](Cc1ccc(O)cc1)NC(=O)[C@H](CCC(=O)O)NC3=O)C(=O)N2 [SEQ ID NO:3] (H-CCEYCCNPACTGCY-OH; disulfide 1-6, 2-10, 5-13; N-terminus and C-terminus assumed)
- intestinal transit rates versus Tris buffer or equivalent dose of Zelnorm (gastrointestinal transit; acute, chemically synthesized peptides, FIG. 4b): increase intestinal transit rates more than either Tris buffer alone or an equivalent dose of Zelnorm®
- gastrointestinal transit rate (gastrointestinal transit; acute, oral, SEQ ID NO:4 and Zelnorm 0.1 mg/kg, FIG. 3a, 3b): increase gastrointestinal transit rate
- effect in mouse gastrointestinal motility assay upon chronic dosing (gastrointestinal transit; oral once a day for 5 days, SEQ ID NO:3 0.06 or 0.25 mg/kg, FIG. 4c): effective
- Mean Ease of Passage of stools, baseline versus treatment, versus placebo (bowel habits; 1000 μg dose group): greatest difference in baseline versus treatment values
- Mean Stool Weight (bowel habits; seven daily oral doses 30-1000 μg, higher doses): increase in Mean Stool Weight
- Mean Stool Frequency (stools per week) (bowel habits; seven daily oral doses 30-1000 μg, higher doses, healthy subjects): increase in Mean Stool Frequency score
- Cleavage of SEQ ID NO: 3 by proteolytic substance (aminopeptidase): not detectable
- Cleavage of SEQ ID NO: 3 by proteolytic substance (pepsin): not detectable
